Results published in publication PMC10879502, “Linking ATP and allosteric sites to achieve superadditive binding with bivalent EGFR kinase inhibitors” (Communications Chemistry, 2024).

Columns and labels:
Assay in all cases: KINOMEscan
Type in all cases: binding
Settings in all cases: 1 μM
[1] = target: WNK2 (Homo sapiens, UniProt Q9Y3S1)
[2] = target: CDK5 (Homo sapiens, UniProt Q00535)
[3] = target: T1, IKK-epsilon (Homo sapiens, UniProt Q14164)
T1 construct: purchased Eurofins DiscoverX (KINOMEscan)

[4] = target: T2, CSNK1D (Homo sapiens, UniProt P48730)
T2 construct: purchased Eurofins DiscoverX Corporation

[5] = target: T3, HASPIN (Homo sapiens, UniProt Q8TF76)
T3 construct: purchased Eurofins DiscoverX Corporation

[6] = target: PLK4 (Homo sapiens, UniProt O00444)
[7] = target: T4, CAMK2A (Homo sapiens, UniProt Q9UQM7)
T4 construct: purchased Eurofins DiscoverX Corporation (KINOMEscan)

[8] = target: PCTK2 (Homo sapiens, UniProt Q00537)
[9] = target: T5, TRKC (Homo sapiens, UniProt Q16288)
T5 construct: purchased Eurofins DiscoverX Corporation

[10] = target: SNRK (Homo sapiens, UniProt Q9NRH2)
[11] = target: RPS6KA4(Kin.Dom.2-C-terminal) (Homo sapiens, UniProt O75676)
[12] = target: T6, NEK3 (Homo sapiens, UniProt P51956)
T6 construct: purchased Eurofins DiscoverX Corporation

[13] = target: T7, TAOK1 (Homo sapiens, UniProt Q7L7X3)
T7 construct: purchased Eurofins DiscoverX Corporation

[14] = target: T8, MAPKAPK5 (Homo sapiens, UniProt Q8IW41)
T8 construct: purchased Eurofins DiscoverX Corporation

[15] = target: T9, ABL1(F317L)-phosphorylated (Homo sapiens, UniProt P00519, F317L)
T9 construct: purchased Eurofins DiscoverX Corporation

[16] = target: T10, MLK1 (Homo sapiens, UniProt P80192)
T10 construct: purchased Eurofins DiscoverX Corporation

[17] = target: RSK4(Kin.Dom.1-N-terminal) (Homo sapiens, UniProt Q9UK32)
[18] = target: TXK (Homo sapiens, UniProt P42681)
[19] = target: ARK5 (Homo sapiens, UniProt O60285)
[20] = target: WNK4 (Homo sapiens, UniProt Q96J92)
[21] = target: T11, GSK3A (Homo sapiens, UniProt P49840)
T11 construct: purchased Eurofins DiscoverX Corporation

[22] = target: T12, DAPK3 (Homo sapiens, UniProt O43293)
T12 construct: purchased Eurofins DiscoverX Corporation

[23] = target: T13, TNNI3K (Homo sapiens, UniProt Q59H18)
T13 construct: purchased Eurofins DiscoverX Corporation

[24] = target: EPHA6 (Homo sapiens, UniProt Q9UF33)
[25] = target: T14, NEK10 (Homo sapiens, UniProt Q6ZWH5)
T14 construct: purchased Eurofins DiscoverX Corporation

[26] = target: T15, CDC2L2 (Homo sapiens, UniProt Q9UQ88)
T15 construct: purchased Eurofins DiscoverX Corporation (KINOMEscan)

[27] = target: T16, ABL1(Q252H)-nonphosphorylated (Homo sapiens, UniProt P00519, Q252H)
T16 construct: purchased Eurofins DiscoverX Corporation

[28] = target: EPHB3 (Homo sapiens, UniProt P54753)
[29] = target: T17, MEK1 (Homo sapiens, UniProt Q02750)
T17 construct: purchased Eurofins DiscoverX Corporation

[30] = target: T18, DCAMKL1 (Homo sapiens, UniProt O15075)
T18 construct: purchased Eurofins DiscoverX Corporation

[31] = target: p38-alpha (Homo sapiens, UniProt Q16539)
[32] = target: EGFR(S752-I759del) (Homo sapiens, UniProt P00533, DEL752-759)
[33] = target: ASK1 (Homo sapiens, UniProt Q99683)
[34] = target: p38-beta (Homo sapiens, UniProt Q15759)
[35] = target: CDKL2 (Homo sapiens, UniProt Q92772)
[36] = target: CDK11 (Homo sapiens, UniProt Q9BWU1)
[37] = target: T19, BMPR1B (Homo sapiens, UniProt O00238)
T19 construct: purchased Eurofins DiscoverX Corporation (KINOMEscan)

[38] = target: VEGFR2 (Homo sapiens, UniProt P35968)
[39] = target: FGFR3(G697C) (Homo sapiens, UniProt P22607, G697C)
[40] = target: YANK1 (Homo sapiens, UniProt Q8WU08)
[41] = target: EPHA7 (Homo sapiens, UniProt Q15375)
[42] = target: ACVRL1 (Homo sapiens, UniProt P37023)

Chain of p38-beta (Q15759 whole entry): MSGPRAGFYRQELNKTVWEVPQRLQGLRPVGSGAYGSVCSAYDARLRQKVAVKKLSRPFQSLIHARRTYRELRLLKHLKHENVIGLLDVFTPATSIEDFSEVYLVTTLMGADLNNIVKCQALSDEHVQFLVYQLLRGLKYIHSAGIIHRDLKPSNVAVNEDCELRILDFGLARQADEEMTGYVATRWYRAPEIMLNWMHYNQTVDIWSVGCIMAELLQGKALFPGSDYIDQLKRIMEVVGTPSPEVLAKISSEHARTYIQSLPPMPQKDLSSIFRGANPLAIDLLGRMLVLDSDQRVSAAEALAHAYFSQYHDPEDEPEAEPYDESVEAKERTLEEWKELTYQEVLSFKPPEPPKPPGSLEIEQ
Chain of PCTK2 (Q00537 whole entry): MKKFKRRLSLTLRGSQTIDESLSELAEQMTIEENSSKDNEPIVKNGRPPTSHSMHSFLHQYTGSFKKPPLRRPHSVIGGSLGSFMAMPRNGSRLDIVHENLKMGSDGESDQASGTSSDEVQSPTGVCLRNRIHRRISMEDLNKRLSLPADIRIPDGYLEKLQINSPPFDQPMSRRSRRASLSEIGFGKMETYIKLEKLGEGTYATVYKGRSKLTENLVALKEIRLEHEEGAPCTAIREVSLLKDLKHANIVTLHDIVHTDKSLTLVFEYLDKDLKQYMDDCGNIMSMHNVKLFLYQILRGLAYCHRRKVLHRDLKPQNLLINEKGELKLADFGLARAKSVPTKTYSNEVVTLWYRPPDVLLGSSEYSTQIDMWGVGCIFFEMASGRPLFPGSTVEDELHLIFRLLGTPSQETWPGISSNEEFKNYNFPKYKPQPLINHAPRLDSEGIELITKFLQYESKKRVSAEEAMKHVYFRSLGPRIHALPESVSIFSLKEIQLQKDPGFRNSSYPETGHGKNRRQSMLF
T8 sequence (Q8IW41 whole entry): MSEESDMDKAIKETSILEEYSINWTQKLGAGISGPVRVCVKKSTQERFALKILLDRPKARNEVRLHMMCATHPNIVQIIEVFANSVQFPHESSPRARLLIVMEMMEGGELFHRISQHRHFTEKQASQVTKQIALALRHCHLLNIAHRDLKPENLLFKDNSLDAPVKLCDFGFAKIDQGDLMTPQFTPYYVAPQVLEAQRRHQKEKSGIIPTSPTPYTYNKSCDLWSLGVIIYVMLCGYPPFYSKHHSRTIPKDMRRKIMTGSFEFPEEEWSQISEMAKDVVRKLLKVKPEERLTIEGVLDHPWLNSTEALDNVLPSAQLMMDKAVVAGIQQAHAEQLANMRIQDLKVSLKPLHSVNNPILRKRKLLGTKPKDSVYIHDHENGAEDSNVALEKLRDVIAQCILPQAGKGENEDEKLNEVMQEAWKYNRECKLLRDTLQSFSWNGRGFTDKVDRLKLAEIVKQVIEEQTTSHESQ
Chain of YANK1 (Q8WU08 whole entry): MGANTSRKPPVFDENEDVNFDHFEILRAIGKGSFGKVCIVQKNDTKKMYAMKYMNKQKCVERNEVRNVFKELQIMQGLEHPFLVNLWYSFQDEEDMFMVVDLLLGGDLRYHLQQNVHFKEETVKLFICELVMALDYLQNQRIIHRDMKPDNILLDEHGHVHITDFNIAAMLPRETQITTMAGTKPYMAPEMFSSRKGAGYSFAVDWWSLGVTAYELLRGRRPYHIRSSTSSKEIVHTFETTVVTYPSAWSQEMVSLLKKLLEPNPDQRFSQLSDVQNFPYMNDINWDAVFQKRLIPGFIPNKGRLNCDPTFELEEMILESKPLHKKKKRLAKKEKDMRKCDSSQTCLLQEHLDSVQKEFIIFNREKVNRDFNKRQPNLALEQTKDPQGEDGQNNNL
T19 sequence (O00238 14-502): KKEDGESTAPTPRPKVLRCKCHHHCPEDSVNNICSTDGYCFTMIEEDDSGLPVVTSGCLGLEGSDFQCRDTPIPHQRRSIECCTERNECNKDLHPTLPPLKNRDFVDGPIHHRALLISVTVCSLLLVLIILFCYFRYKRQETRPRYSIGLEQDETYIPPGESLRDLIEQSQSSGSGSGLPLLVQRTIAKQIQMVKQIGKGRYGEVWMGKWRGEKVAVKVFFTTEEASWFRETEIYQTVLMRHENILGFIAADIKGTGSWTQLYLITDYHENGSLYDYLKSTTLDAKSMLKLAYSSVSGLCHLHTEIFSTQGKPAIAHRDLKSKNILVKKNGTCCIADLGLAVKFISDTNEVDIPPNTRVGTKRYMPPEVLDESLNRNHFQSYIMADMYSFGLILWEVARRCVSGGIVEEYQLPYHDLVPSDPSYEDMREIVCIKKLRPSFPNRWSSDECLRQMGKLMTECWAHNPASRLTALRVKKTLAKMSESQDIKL
Chain of CDK11 (Q9BWU1 whole entry): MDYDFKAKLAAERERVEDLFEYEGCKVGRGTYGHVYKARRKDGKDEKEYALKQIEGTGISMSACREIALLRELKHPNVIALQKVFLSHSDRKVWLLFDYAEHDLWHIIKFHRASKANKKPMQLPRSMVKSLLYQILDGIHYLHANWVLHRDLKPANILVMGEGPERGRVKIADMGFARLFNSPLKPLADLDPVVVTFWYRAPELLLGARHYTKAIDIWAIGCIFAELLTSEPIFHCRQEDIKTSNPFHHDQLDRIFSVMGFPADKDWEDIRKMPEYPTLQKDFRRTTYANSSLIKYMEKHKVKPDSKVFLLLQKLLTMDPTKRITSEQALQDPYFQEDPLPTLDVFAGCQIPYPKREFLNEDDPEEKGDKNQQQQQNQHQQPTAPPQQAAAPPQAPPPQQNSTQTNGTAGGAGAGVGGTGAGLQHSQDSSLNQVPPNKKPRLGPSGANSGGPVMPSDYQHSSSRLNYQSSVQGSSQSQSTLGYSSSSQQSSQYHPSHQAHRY
Chain of CDKL2 (Q92772 whole entry): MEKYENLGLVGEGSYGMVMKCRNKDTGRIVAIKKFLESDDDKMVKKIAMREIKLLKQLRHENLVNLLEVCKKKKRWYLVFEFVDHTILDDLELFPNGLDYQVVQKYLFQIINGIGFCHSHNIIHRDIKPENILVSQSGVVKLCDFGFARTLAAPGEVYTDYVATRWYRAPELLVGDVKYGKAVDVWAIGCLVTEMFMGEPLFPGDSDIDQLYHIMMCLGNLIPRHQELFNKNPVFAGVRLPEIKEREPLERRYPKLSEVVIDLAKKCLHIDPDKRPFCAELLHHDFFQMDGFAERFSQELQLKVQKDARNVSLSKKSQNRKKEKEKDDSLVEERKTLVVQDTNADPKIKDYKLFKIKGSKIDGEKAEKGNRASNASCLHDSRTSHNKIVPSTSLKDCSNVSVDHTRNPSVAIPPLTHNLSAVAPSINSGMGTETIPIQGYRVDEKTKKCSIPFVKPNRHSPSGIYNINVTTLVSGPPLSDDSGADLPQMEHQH
Chain of EPHA7 (Q15375 28-998): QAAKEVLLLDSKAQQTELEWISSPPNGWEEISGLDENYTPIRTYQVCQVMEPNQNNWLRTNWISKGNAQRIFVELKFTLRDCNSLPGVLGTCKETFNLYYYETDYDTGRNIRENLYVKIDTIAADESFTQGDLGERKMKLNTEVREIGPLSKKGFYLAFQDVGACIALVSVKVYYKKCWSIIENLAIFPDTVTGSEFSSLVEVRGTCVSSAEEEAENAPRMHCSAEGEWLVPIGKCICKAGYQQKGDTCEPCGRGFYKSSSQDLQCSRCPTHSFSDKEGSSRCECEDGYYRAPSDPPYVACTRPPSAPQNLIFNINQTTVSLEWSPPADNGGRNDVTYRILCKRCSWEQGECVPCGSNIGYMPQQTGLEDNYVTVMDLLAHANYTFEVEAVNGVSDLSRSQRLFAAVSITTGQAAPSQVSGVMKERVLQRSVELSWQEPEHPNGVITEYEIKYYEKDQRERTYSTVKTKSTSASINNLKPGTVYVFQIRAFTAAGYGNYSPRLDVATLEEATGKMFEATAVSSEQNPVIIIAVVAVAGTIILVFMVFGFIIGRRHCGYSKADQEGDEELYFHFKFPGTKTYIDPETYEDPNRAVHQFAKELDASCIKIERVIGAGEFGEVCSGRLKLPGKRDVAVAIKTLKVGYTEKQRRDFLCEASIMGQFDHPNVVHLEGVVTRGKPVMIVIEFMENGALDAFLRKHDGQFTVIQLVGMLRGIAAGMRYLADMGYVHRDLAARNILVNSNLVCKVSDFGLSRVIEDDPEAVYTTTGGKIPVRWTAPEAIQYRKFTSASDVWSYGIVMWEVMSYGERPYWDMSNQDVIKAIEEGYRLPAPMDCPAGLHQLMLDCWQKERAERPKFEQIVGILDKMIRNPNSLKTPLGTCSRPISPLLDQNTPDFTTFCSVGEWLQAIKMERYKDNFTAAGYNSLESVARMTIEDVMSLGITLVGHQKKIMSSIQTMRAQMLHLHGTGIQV
Chain of CDK5 (Q00535 whole entry): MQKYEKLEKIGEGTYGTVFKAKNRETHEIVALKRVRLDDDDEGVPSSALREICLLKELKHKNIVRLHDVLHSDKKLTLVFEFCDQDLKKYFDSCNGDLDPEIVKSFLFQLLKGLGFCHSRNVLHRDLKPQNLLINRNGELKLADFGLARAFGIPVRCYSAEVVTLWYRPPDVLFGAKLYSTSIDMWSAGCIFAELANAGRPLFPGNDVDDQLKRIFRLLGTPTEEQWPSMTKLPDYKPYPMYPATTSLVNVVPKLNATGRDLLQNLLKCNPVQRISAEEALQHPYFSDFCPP
Chain of p38-alpha (Q16539 whole entry): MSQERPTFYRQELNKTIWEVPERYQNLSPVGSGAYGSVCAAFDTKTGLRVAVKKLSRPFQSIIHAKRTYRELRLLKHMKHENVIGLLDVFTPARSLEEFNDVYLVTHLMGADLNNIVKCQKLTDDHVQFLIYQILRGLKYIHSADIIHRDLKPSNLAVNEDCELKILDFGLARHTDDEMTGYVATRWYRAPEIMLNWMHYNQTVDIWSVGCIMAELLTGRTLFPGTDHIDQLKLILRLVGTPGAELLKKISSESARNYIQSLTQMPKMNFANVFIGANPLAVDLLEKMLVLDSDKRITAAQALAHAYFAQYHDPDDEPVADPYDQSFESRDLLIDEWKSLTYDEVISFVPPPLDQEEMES

C=CC(=O)Nc1ccc(OC)c(Nc2cc(-c3[nH]c(CC)nc3-c3cccc(NC(=O)c4cccc5c4NC(=O)c4ccccc4N5)c3)ccn2)c1 [Compound 4]
POC [1]: 62% of control | POC [2]: 100% of control | POC [3]: 100% of control | POC [4]: 87% of control | POC [5]: 100% of control | POC [6]: 71% of control | POC [7]: 65% of control | POC [8]: 100% of control | POC [9]: 87% of control | POC [10]: 82% of control | POC [11]: 75% of control | POC [12]: 100% of control | POC [13]: 100% of control | POC [14]: 100% of control | POC [15]: 85% of control | POC [16]: 86% of control | POC [17]: 100% of control | POC [18]: 42% of control | POC [19]: 100% of control | POC [20]: 85% of control | POC [21]: 65% of control | POC [22]: 62% of control | POC [23]: 89% of control | POC [24]: 90% of control | POC [25]: 86% of control | POC [26]: 91% of control | POC [27]: 100% of control | POC [28]: 100% of control | POC [29]: 100% of control | POC [30]: 100% of control | POC [31]: 46% of control | POC [32]: 6% of control | POC [33]: 100% of control | POC [34]: 59% of control | POC [35]: 100% of control | POC [36]: 100% of control | POC [37]: 100% of control | POC [38]: 100% of control | POC [39]: 100% of control | POC [40]: 84% of control | POC [41]: 100% of control | POC [42]: 75% of control
